# From ChEMBL document CHEMBL1201862, “PubChem BioAssay data set” (2004)
#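 Cells were grown in 96-well plates and exposed to each compound for 48 hours at five concentrations; endpoints were interpolated linearly between bracketing concentrations, or set to the highest concentration if not reached. GI50: concentration for 50% inhibition of growth.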 The source made the active and inactive calls. Rule as the data show it: active = GI50 up to about 1.1 µM and inactive = higher.
# Columns and labels:
# Assay in all cases: NCI tumour cell line growth inhibition, 48 h
# M14 = system: M14
# SN12C = system: SN12C
# SK-OV-3 = system: SK-OV-3
# K562 = system: K562
# MDA-N = system: MDA-N
# MCF7 = system: MCF7
# OVCAR-4 = system: OVCAR-4
# NCI-H522 = system: NCI-H522
# A549 = system: A549
# U-251 = system: U-251
# KM12 = system: KM12
# HCC 2998 = system: HCC 2998
# TK-10 = system: TK-10
# SNB-19 = system: SNB-19
# LOX IMVI = system: LOX IMVI
# SK-MEL-28 = system: SK-MEL-28
# SF-268 = system: SF-268
# SR = system: SR
# MDA-MB-435 = system: MDA-MB-435
# IGROV-1 = system: IGROV-1
# SF-295 = system: SF-295
# HL-60 = system: HL-60
# SF-539 = system: SF-539
# CCRF-CEM = system: CCRF-CEM
# SK-MEL-5 = system: SK-MEL-5
# MOLT-4 = system: MOLT-4
# DU-145 = system: DU-145
# BT-549 = system: BT-549
# A498 = system: A498
# SNB-75 = system: SNB-75
# SK-MEL-2 = system: SK-MEL-2
# CAKI-1 = system: CAKI-1
# COLO 205 = system: COLO 205
# RPMI-8226 = system: RPMI-8226
# HCT-15 = system: HCT-15
# 786-0 = system: 786-0
# OVCAR-5 = system: OVCAR-5
# HOP-62 = system: HOP-62
# HCT-116 = system: HCT-116
# NCI/ADR-RES = system: NCI/ADR-RES
# ACHN = system: ACHN
# RXF 393 = system: RXF 393
# T47D = system: T47D
# EKVX = system: EKVX
# UO-31 = system: UO-31
# Malme-3M = system: Malme-3M
# HT-29 = system: HT-29
# NCI-H23 = system: NCI-H23
# OVCAR-8 = system: OVCAR-8
# UACC-62 = system: UACC-62
# PC-3 = system: PC-3
# Hs-578T = system: Hs-578T
# SW-620 = system: SW-620
# MDA-MB-231 = system: MDA-MB-231
# UACC-257 = system: UACC-257
# NCI-H226 = system: NCI-H226
# NCI-H460 = system: NCI-H460
# OVCAR-3 = system: OVCAR-3
# HOP-92 = system: HOP-92
smiles,measurement,setting,value
NS(=O)(=O)c1ccc(NNc2c3ccccc3nc3ccccc23)cc1,GI50,M14,11.2 µM (inactive)
same,GI50,SN12C,14 µM (inactive)
same,GI50,SK-OV-3,14.8 µM (inactive)
same,GI50,K562,7.89 µM (inactive)
same,GI50,MDA-N,12.9 µM (inactive)
same,GI50,MCF7,10.9 µM (inactive)
same,GI50,OVCAR-4,10.5 µM (inactive)
same,GI50,NCI-H522,11.4 µM (inactive)
same,GI50,A549,15.3 µM (inactive)
same,GI50,U-251,11.7 µM (inactive)
same,GI50,KM12,11.6 µM (inactive)
same,GI50,HCC 2998,12.2 µM (inactive)
same,GI50,TK-10,18.8 µM (inactive)
same,GI50,SNB-19,14.7 µM (inactive)
same,GI50,LOX IMVI,7.21 µM (inactive)
same,GI50,SK-MEL-28,12 µM (inactive)
same,GI50,SF-268,12.2 µM (inactive)
same,GI50,SR,10.8 µM (inactive)
same,GI50,MDA-MB-435,12.4 µM (inactive)
same,GI50,IGROV-1,11.2 µM (inactive)
same,GI50,SF-295,12 µM (inactive)
same,GI50,HL-60,8.63 µM (inactive)
same,GI50,SF-539,12.2 µM (inactive)
same,GI50,CCRF-CEM,6.28 µM (inactive)
same,GI50,SK-MEL-5,12.7 µM (inactive)
same,GI50,MOLT-4,6.04 µM (inactive)
same,GI50,DU-145,14.3 µM (inactive)
same,GI50,BT-549,10.3 µM (inactive)
same,GI50,A498,18.3 µM (inactive)
same,GI50,SNB-75,12.9 µM (inactive)
same,GI50,SK-MEL-2,13.5 µM (inactive)
same,GI50,CAKI-1,13 µM (inactive)
same,GI50,COLO 205,7.29 µM (inactive)
same,GI50,RPMI-8226,9.4 µM (inactive)
same,GI50,HCT-15,10 µM
same,GI50,786-0,12.6 µM (inactive)
same,GI50,OVCAR-5,12.8 µM (inactive)
same,GI50,HOP-62,12.2 µM (inactive)
same,GI50,HCT-116,10.8 µM (inactive)
same,GI50,NCI/ADR-RES,14 µM (inactive)
same,GI50,ACHN,11.4 µM (inactive)
same,GI50,RXF 393,13.2 µM (inactive)
same,GI50,T47D,7.52 µM (inactive)
same,GI50,EKVX,12.5 µM (inactive)
same,GI50,UO-31,10.9 µM (inactive)
same,GI50,Malme-3M,11.2 µM (inactive)
same,GI50,HT-29,7.73 µM (inactive)
same,GI50,NCI-H23,13.6 µM (inactive)
same,GI50,OVCAR-8,11.8 µM (inactive)
same,GI50,UACC-62,12.3 µM (inactive)
same,GI50,PC-3,11.5 µM (inactive)
same,GI50,Hs-578T,14.5 µM (inactive)
same,GI50,SW-620,10.9 µM (inactive)
same,GI50,MDA-MB-231,15.6 µM (inactive)
same,GI50,UACC-257,13.2 µM (inactive)
same,GI50,NCI-H226,10.3 µM (inactive)
same,GI50,NCI-H460,12.2 µM (inactive)
same,GI50,OVCAR-3,10.2 µM (inactive)
same,GI50,HOP-92,14.1 µM (inactive)
